As a reminder, the viability is a read-out of living cells in per cent, often relative to untreated cells.

This series is described as follows: in vitro. The note with it: human, hela cells, % viability.

For `CCOC(=O)c1cccc(S(=O)(=O)NC(C)Cn2cncn2)c1` (centres unmarked) [CBK305820], the viability at 28.5 h, 10 µM came to 95.9%.
`CC(=O)NCCSc1nc2ccccc2nc1N1CCCC1` [CBK103696]: the viability at 28.5 h, 10 µM is 99%.
For `CNS(=O)(=O)c1cc(C(=O)O)ccc1OC` [CBK270179] the value was 104%; for `O=C(Cc1ccc(F)cc1)NCc1nnc(-c2cccs2)o1` [CBK284640], 82.6%.
For `CCN1CC2(CCC1=O)CCN(c1ccnc(OC)c1C#N)CC2` [CBK307018] the value was 95%; for `Cc1ccc(S(=O)(=O)N(C(=O)c2ccncc2)c2ccc(OC(=O)c3ccncc3)cc2)c(C)c1` [CBK265635], 104%; for `COc1ccc(F)c(CN(CC2CCNCC2)C(=O)Nc2c(C)noc2C)c1` [CBK049811], 112%.
For `Cc1ccc(-c2noc([C@@H]3Cc4[nH]cnc4CN3C(=O)c3cccs3)n2)cc1` [CBK288957] the value was 82.2%; for `Cc1cc(Cl)ccc1CNC(=O)C1=CC(=O)CC(C)(C)O1` [CBK153282], 97.5%; for `CN(Cc1nncn1C)C(=O)c1cnc2c(c1)c(C(C)(C)C)nn2C` [CBK304154], 85.4%.
Take `O=C(CCn1ccnc1)NCC1Cc2ccccc2O1` (centres unmarked) [CBK283062]: the viability at 28.5 h, 10 µM is 81%.
In the case of `CS(=O)(=O)N(CC(=O)NCc1ccccn1)c1ccc(C23CC4CC(CC(C4)C2)C3)cc1` [CBK268448] it was 106%; in that of `Cc1nn(C)c(Cl)c1S(=O)(=O)NCc1ccc(C(F)(F)F)c(F)c1` [CBK062111], 93.8%.
For `O=C(CSc1n[nH]c(=O)n1Cc1ccccc1)NCc1ccc(-c2ccc(Cl)cc2)o1` [CBK296963] the value was 102%; for `O=C(Nc1ccc(C(F)(F)F)cc1)C1=C(O)CN(c2ccc(Cl)cc2)C1=O` [CBK017603], 84.8%.
For `CS(=O)(=O)c1ccc2nc(NC(=O)Cc3ccccc3)sc2c1` [CBK287339], the viability at 28.5 h, 10 µM is 89.8%.
In the case of `CCCCn1c(S)nc2c(-c3ccccc3)c[nH]c2c1=O` [CBK288505] it was 96.2%.
`O=C(CSc1ccccc1)c1ccccc1` [CBK002224]: the viability at 28.5 h, 10 µM was found to be 97.4%.
For `O=C(CSc1nnc(-c2cccnc2)o1)Nc1ccccc1` [CBK287742] the value was 82.6%; for `CCN(CC)CCn1c(OC)cc(=O)[nH]c1=O` [CBK264411], 97.5%.
In the case of `COc1ccc(CNC(=O)c2cn[nH]c2-c2ccccc2)c(OC)c1` [CBK288057] it was 100%; in that of `C[C@]12CN(C(=O)C3CC3)C[C@H]1NC(=O)c1ccccc1C2=O` [CBK281660], 102%; in that of `O=C(O)Cn1nnc(-c2ccc(OCc3cccc(C(F)(F)F)c3)cc2)n1` [CBK267034], 97.7%.
As for `O=C(O)c1cc(-c2ccco2)nc2ccccc12` [CBK027882], the viability at 28.5 h, 10 µM is 98.3%.
For `Cn1ncc2c1CCCN(C(=O)COc1cccc(F)c1)C2` [CBK285257] the value was 96.9%; for `O=C(O)C1CCN(c2ncnc3sc4c(c23)CCC4)CC1` [CBK268326], 98.9%.
In the case of `COC(=O)[C@H]1CN(C(=O)CN2CCCC2=O)C[C@@H]1c1ccccc1F` [CBK283518] it was 89.2%; in that of `CCN1CCN(C(=O)c2ccc3nc(-c4ccccc4)c(-c4ccccc4)nc3c2)CC1` [CBK269090], 94.7%; in that of `CC(C)(C)OC(=O)N1CCN(Cc2nnc(Cc3ccccc3)o2)CC1` [CBK306223], 94.1%.
For `c1csc(CNCCCN2CCOCC2)c1` [CBK278305C] the value was 91.1%; for `CC(C)(CN1CCCC1)NC(=O)c1cc(Cl)c(Cl)cc1C(=O)O` [CBK287141], 89%.
As for `COc1cc(C(=O)N2CCC3(CC2)CC(=O)c2ccc(C)cc2O3)ccc1O` [CBK166045], the viability at 28.5 h, 10 µM came to 86.6%.
In the case of `Nc1cc(O)nc(SCCN2CCN(c3ccc(C(F)(F)F)cc3[N+](=O)[O-])CC2)n1` [CBK265225] it was 88.5%; in that of `Cc1cc(NC(=O)CN2CCN(c3ccccc3)CC2)c2ccccc2n1` [CBK278322G], 99.5%.
For `Cc1cc(-c2cc(=O)n(Cc3ccccc3F)nc2C2CC2)on1` [CBK284366] the value was 87.2%; for `O=[N+]([O-])c1ccc(CN2CCC(Oc3cncc(OCc4ccc(Cl)c(Cl)c4)n3)C2)cc1` (centres unmarked) [CBK084426], 97.1%; for `CN(C)CCN1CCN(c2cncc(-c3cccc(C(=O)O)c3)n2)CC1` [CBK065443], 104%.
As to `O=C(Nc1nn(Cc2c(F)cccc2Cl)cc1Cl)c1cccnc1` [CBK268154], the viability at 28.5 h, 10 µM is 79.1%.
For `CCN(CC)C(=O)CN1CCC(Oc2cncc(Oc3ccc(OC)c(OC)c3)n2)C1` (centres unmarked) [CBK084404] the value was 93.9%; for `c1cncc(CN2CCN(Cc3c[nH]c4ccccc34)CC2)c1` [CBK218281], 92.2%; for `CS(=O)(=O)NC[C@H]1O[C@@H](Cc2nc(-c3ccc(F)cc3)no2)[C@H](O)[C@@H]1O` [CBK288906], 95.3%.
For `OCCN1CCC2(CC1)CN(CCO)c1ccccc12` [CBK126759] the value was 87.4%.
Consider `CC(=O)Nc1ccc(NC(=O)CC2(CC(=O)O)CCCCC2)cc1` [CBK299816], for which the viability at 28.5 h, 10 µM was 102%.
As for `Cc1ccc(CNC(=O)C2CC(=O)N(c3cccc(C)c3C)C2)cc1` (centres unmarked) [CBK295183], the viability at 28.5 h, 10 µM worked out at 97.5%.
In the case of `O=C(N/N=C\c1ccc(OCc2ccccc2)cc1)C1COc2cc3ccccc3cc2O1` (centres unmarked) [CBK262764] it was 95.6%.
Take `FC(F)(F)c1nc2ccccc2nc1Sc1nc[nH]n1` [CBK093808]: the viability at 28.5 h, 10 µM worked out at 87.6%.
For `O=C(O)CCC(=O)NCc1ccc2c(c1)OCO2` [CBK286930] the value was 91.6%; for `O=C(Nc1nc(-c2ccncc2)cs1)C1COc2ccccc2O1` (centres unmarked) [CBK287370], 96.7%.
In the case of `Cc1cc(Cl)ccc1CNC(=O)c1ccc2[nH]ccc2c1` [CBK149048], the viability at 28.5 h, 10 µM worked out at 81.7%.
For `OCCCNc1nccnc1-c1cccnc1` [CBK037277] the value was 108%; for `FC(F)(F)c1cccc(SCc2ccc(Cl)cc2)n1` [CBK107197], 91.9%; for `Cc1cccc(CN(CC(C)(C)CN)C(=O)Nc2ccc(-c3ccccc3)cc2)n1` [CBK002453C], 86.7%.
For `SC1=NC2(CCCC2)NN1c1ccc(Cl)cc1` [CBK288391] the value was 83.2%.
For `CN1CCN(c2ccc(-c3cnc(N)c(NC4CCOCC4)n3)cc2)CC1` [CBK064114] the value was 88.8%; for `CCC1CCCCN1C(=O)c1ccc(NC2CC2)nc1` (centres unmarked) [CBK304815], 92.2%; for `O=C(CSc1nccc2ccccc12)NC1CCCOC1` (centres unmarked) [CBK282677], 85.2%.
With `CCCOc1ccc(CCNc2ncnc(N)n2)cc1` [CBK262744], the viability at 28.5 h, 10 µM turned out to be 90.1%.
For `CC1CCN(S(=O)(=O)c2cccc3c(S(=O)(=O)N4CCC(C)CC4)cccc23)CC1` [CBK262071] the value was 98.2%; for `CC(C)N(C)C1CCN(S(=O)(=O)c2cccc([N+](=O)[O-])c2)CC1` [CBK294462], 88.7%; for `Cc1ccc(OCc2occc2C(=O)N2CCC(O)(CN(C)C)C2)cc1` (centres unmarked) [CBK307341], 95.6%.
For `Fc1ccc(-c2nccnc2OCc2ccccn2)cc1` [CBK106894] the value was 99.6%; for `FC(F)(F)c1ccnc(Sc2nccs2)n1` [CBK093771], 91.9%.
As for `CC1CCN(CN2C(=O)C(=O)c3ccccc32)CC1` [CBK261304], the viability at 28.5 h, 10 µM amounted to 91.7%.
For `O=C(O)CCC(=O)N1CC[C@H]2NC(=O)N(c3ccc(F)cc3)C(=O)[C@H]21` [CBK289329] the value was 103%; for `COc1ccc(CCC(=O)N2CCCCC2c2ncc(-c3cccc(F)c3)[nH]2)cc1OC` (centres unmarked) [CBK291148], 90.3%; for `COc1ccc(C(C)c2cc3c(cc2O)OCO3)c(F)c1` (centres unmarked) [CBK200101], 98.1%.
On to `COc1cc2c(cc1OC)CN(C(=O)C1CCN(C)CC1)CC2` [CBK122744], for which the viability at 28.5 h, 10 µM amounted to 93.2%.
In the case of `CC1(C)CC(=O)C(C(=S)Nc2ccccc2)=C(NCc2ccccc2)C1` [CBK264498] it was 91.6%; in that of `O=C(NC(=O)c1ccc(F)c(Cl)c1)Nc1nnc(C(F)(F)F)s1` [CBK076830], 88.6%.
For `CC(=O)Nc1ccc(NCc2ncc(C(C)(C)C)o2)c(Cl)c1` [CBK306135] the value was 98.6%; for `c1cc(-c2nccnc2Oc2ccc3c(c2)OCO3)ccn1` [CBK106726], 92.4%.
In the case of `CC(=O)NCCN1CC[C@H]2CN(C(=O)c3cc(C)on3)CC[C@H]2CC1=O` [CBK288785] it was 103%; in that of `CC1=C[C@@H](CNC(=O)c2ccccc2)[C@H](C(C)C)C[C@H]1CC(=O)O` [CBK289213], 102%.
Take `O=C(/C=C/c1cn(C2CC(O)C(CO)O2)c(=O)[nH]c1=O)NCCCCCCNC(=O)C(F)(F)F` (centres unmarked) [CBK201310]: the viability at 28.5 h, 10 µM is 94.3%.
As to `O=C(CCS(=O)(=O)c1ccccc1)Nc1ccccc1N1CCNCC1` [CBK028285T], the viability at 28.5 h, 10 µM turned out to be 99.8%.
For `COc1ccc(C(=O)NCCCN(C)C)cc1Nc1cncc(-c2ccc(O)cc2)n1` [CBK126938T] the value was 95%.
In the case of `CS(=O)(=O)c1ncc(Cl)c(C(=O)N(Cc2ccccc2)c2ccccn2)n1` [CBK269489] it was 95%; in that of `O=C(CSc1nc(-c2cccs2)cc(C(F)(F)F)n1)NN1CCOCC1` [CBK307375], 98.1%; in that of `Cc1ccc(C2=CCN(CC(=O)N(C)C3CCCCC3)CC2)o1` [CBK283633], 91.6%.
`Cc1nc2c(c(=O)[nH]1)CN(Cc1ccc(F)cc1)CC2` [CBK284009]: the viability at 28.5 h, 10 µM is 86.9%.

The values are drawn from article PMC12040169 (PLOS Biology, 2025).
